The NIST ThermoML archive (doi:10.1016/j.jct.2015.06.025)

Experiment: mn = molality of the nth substance listed, in mol/kg
Conditions: 101.3 kPa, Liquid; for viscosity: Capillary tube (Ostwald / Ubbelohde) method; for mass density: Pycnometric method

CCCC(CCC)C(=O)[O-].[Na+] [sodium valproate] + O
Conditions | mass density, 288.15 K [kg/m3] | mass density, 298.15 K [kg/m3] | mass density, 308.15 K [kg/m3] | viscosity, 288.15 K [mPa·s] | viscosity, 298.15 K [mPa·s] | viscosity, 308.15 K [mPa·s]
m1 = 0.01 | – | 997.43 | 994.42 | – | 0.8988 | 0.7252
m1 = 0.0102 | 999.51 | – | – | 1.153 | – | –
m1 = 0.0191 | 999.84 | 997.79 | – | 1.162 | 0.9064 | –
m1 = 0.02 | – | – | 994.78 | – | – | 0.7296
m1 = 0.0245 | 1000.06 | 997.98 | – | 1.169 | 0.9122 | –
m1 = 0.0303 | – | – | 995.13 | – | – | 0.7345
m1 = 0.0305 | 1000.3 | 998.22 | – | 1.177 | 0.9166 | –
m1 = 0.0401 | 1000.66 | 998.56 | – | 1.187 | 0.9238 | –
m1 = 0.0405 | – | – | 995.53 | – | – | 0.7397
m1 = 0.0453 | 1000.87 | 998.75 | – | 1.195 | 0.9268 | –
m1 = 0.0497 | – | – | 995.89 | – | – | 0.7444
m1 = 0.0501 | 1001.04 | 998.91 | – | 1.201 | 0.9318 | –
m1 = 0.0605 | – | – | 996.24 | – | – | 0.7499
m1 = 0.0608 | 1001.43 | 999.3 | – | 1.213 | 0.9391 | –
m1 = 0.0706 | 1001.79 | 999.64 | – | 1.225 | 0.9476 | –
m1 = 0.0708 | – | – | 996.63 | – | – | 0.7552
m1 = 0.08 | 1002.15 | 999.96 | – | 1.238 | 0.9558 | –
m1 = 0.0844 | – | – | 997.07 | – | – | 0.7617
m1 = 0.0902 | – | – | 997.29 | – | – | 0.7645
m1 = 0.0924 | 1002.59 | 1000.39 | – | 1.252 | 0.9653 | –
m1 = 0.0959 | – | – | 997.48 | – | – | 0.7686
m1 = 0.101 | – | – | 997.66 | – | – | 0.7716
m1 = 0.1021 | 1002.93 | 1000.72 | – | 1.262 | 0.9733 | –
m1 = 0.1154 | – | – | 998.16 | – | – | 0.7769
